Experiments:
[1] = tested on: Phosphatidyl inositol-specific phospholipase C; experiment: Phosphatidyl inositol-specific phospholipase C assay with sonicated human platelets, release of water-soluble 3H-inositol counts; format: biochemical; conditions: 250 μm PI, 10 minutes
Experimental: This invention also relates to a method of treating inflammation in patients using a compound of Formula (I) as the active constituent.
A. Protocol - Phosphatidyl inositol-specific
phospholipase C assays. The assays were performed as
follows: A mixture of PI (Sigma) and
(^3 H--inositol)-PI in CHCl3 are blown to dryness
under N2 and sonicated into a buffer containing DOC
and CaCl2 so that the final concentrations in each
0.5 mg/ml DOC containing an appropriate amount of
in 50 mM Hepes, 100 mM NaCl, 0.5 mg/ml BSA pH 7.
An aliquot of sonicated human platelets,
5 × 10^9 /ml, is added; the reaction is stopped after
10 minutes with a chloroform/methanol/H2 O solution
and the upper water phase is counted to detect
water-soluble inositol counts. The pH was checked
during each assay using pH paper to verify that none
of the compounds affected this parameter.

phospholipase C = conditions: background statement, no concentration given; cited from earlier work

CCCCCCCCCCCCCCCC(=O)OC1C(O)C(O)C(O)C(O)C1O (stereo not shown) [myo-inositol-5 (or 6)-palmitate]
% Inhibition (specific phospholipase C inhibition) ([1]; Conc. 0.122 mM): 7% | % Inhibition (specific phospholipase C inhibition) ([1]; Conc. 1.22 mM): 55%

CCCCCCCCCCCCNC(=O)OC1C(O)C(O)C(O)C(O)C1O (stereo not shown) [myo-inositol-6 (or 5)-dodecanecarbamate]
% Inhibition (specific phospholipase C inhibition) ([1]; Conc. 0.8 mM): 16%

c1ccc2c(c1)Nc1ccccc1S2 [phenothiazine]
inhibition of phospholipase C (phospholipase C): inhibited

Reference: patent US4474806A, “Sulfonyl or carbonyl inositol derivatives useful as anti-inflammatory/analgesic agents” (Merck & Co., Inc., priority 1982, dated 1984)
